In ChEMBL document CHEMBL5154828 (J Med Chem, 2022):
pIC50: −log10 of the molar value. Calls of active or inactive are those of the source. No cut-off for these calls is given here.

Columns and labels:
[1] = AUC (0 to t) in ICR mouse at 5 mg/kg, po measured up to 24 hrs by LC/MS/MS analysis; type: ADME, organism-based; set-up: time < 24 hrs, dose 5 mg/kg, route po; conditions: in vivo
[2] = Ratio of drug concentration in rat uterus to plasma at 20 mg/kg, po measured after 2 hrs; conditions: female
[3] = Volume of distribution at steady state in ICR mouse at 2 mg/kg, iv measured up to 24 hrs by LC/MS/MS analysis; type: ADME, organism-based; conditions: in vivo, read-out: Vdss
[4] = Ratio of drug concentration in rat liver to plasma at 20 mg/kg, po measured after 2 hrs
[5] = Drug concentration in rat ovary at 20 mg/kg, po measured after 2 hrs; type: ADME, organism-based, Female gonad; conditions: female, read-out: Ct
[6] = Drug concentration in rat uterus at 20 mg/kg, po measured after 2 hrs; type: ADME, organism-based; conditions: female, read-out: Ct
[7] = target: T1, Estrogen receptor (Homo sapiens) (UniProt P03372); experiment: Induction of ERalpha degradation in human T47D cells incubated 24 hrs by Western blot analysis; type: cell-based; conditions: dose 0.1-1000 nM, DDE = dose-dependent effect
T1 sequence (whole entry): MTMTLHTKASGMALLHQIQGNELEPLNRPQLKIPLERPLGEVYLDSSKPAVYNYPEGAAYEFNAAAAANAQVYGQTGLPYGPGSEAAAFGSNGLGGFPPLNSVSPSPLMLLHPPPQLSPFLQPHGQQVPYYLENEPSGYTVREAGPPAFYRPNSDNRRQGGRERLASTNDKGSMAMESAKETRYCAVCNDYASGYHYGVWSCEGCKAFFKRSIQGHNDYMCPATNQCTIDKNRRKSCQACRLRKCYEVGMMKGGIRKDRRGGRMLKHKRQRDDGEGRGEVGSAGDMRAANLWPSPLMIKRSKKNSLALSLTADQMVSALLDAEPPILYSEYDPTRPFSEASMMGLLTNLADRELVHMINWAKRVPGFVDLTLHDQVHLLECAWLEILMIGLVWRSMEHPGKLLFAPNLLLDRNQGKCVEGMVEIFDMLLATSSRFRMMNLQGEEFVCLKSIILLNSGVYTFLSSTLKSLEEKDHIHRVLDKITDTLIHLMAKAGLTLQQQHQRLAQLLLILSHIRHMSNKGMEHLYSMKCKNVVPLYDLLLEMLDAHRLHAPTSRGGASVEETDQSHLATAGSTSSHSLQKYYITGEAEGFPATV

[8] = Cmax in Sprague-Dawley rat at 10 mg/kg, po measured up to 24 hrs by LC/MS/MS analysis; type: ADME, organism-based; set-up: time < 24 hrs, dose 10 mg/kg, route po; conditions: in vivo
[9] = AUC (0 to t) in ICR mouse at 2 mg/kg, iv measured up to 24 hrs by LC/MS/MS analysis; type: ADME, organism-based; set-up: dose 2 mg/kg, time < 24 hrs, route iv; conditions: in vivo
T47D = experiment: Antiproliferative activity against human T47D cells assessed as inhibition of cell growth measured after 7 days by cell titre glo luminescence assay; type: functional, cell-based; conditions: time 7.0 day
[10] = Drug concentration in rat brain at 20 mg/kg, po measured after 2 hrs; type: ADME, organism-based; conditions: read-out: Ct
[11] = Drug concentration in rat kidney at 20 mg/kg, po measured after 2 hrs; type: ADME, organism-based; conditions: read-out: Ct
[12] = Oral bioavailability in ICR mouse at 5 mg/kg measured up to 24 hrs by LC/MS/MS analysis; type: ADME, organism-based; conditions: in vivo
[13] = target: T1, Estrogen receptor (Homo sapiens); experiment: Induction of ERalpha degradation in human BT-474 cells incubated 24 hrs by Western blot analysis; type: cell-based; conditions: dose 0.1-1000 nM, DDE = dose-dependent effect
[14] = Cmax in ICR mouse at 5 mg/kg, po measured up to 24 hrs by LC/MS/MS analysis; type: ADME, organism-based; set-up: dose 5 mg/kg, time < 24 hrs, route po; conditions: in vivo
[15] = Drug concentration in rat liver at 20 mg/kg, po measured after 2 hrs; type: ADME, organism-based; conditions: read-out: Ct
[16] = MRT in ICR mouse at 2 mg/kg, iv measured up to 24 hrs by LC/MS/MS analysis; type: ADME, organism-based; conditions: in vivo
[17] = AUC (0 to t) in Sprague-Dawley rat at 10 mg/kg, po measured up to 24 hrs by LC/MS/MS analysis; type: ADME, organism-based; set-up: time < 24 hrs, dose 10 mg/kg, route po; conditions: in vivo
[18] = Tmax in Sprague-Dawley rat at 10 mg/kg, po measured up to 24 hrs by LC/MS/MS analysis; type: ADME, organism-based; conditions: in vivo
[19] = Drug concentration in rat breast at 20 mg/kg, po measured after 2 hrs; type: ADME, organism-based; conditions: read-out: Ct
CAMA-1 = experiment: Antiproliferative activity against human CAMA-1 cells assessed as inhibition of cell growth measured after 8 days by cell titre glo luminescence assay; type: functional, cell-based; conditions: time 8.0 day
[20] = MRT in Sprague-Dawley rat at 10 mg/kg, po measured up to 24 hrs by LC/MS/MS analysis; type: ADME, organism-based; conditions: in vivo
[21] = target: T1, Estrogen receptor (Homo sapiens); experiment: Induction of ERalpha degradation in human MCF7 cells at 5 uM incubated 24 hrs by Western blot analysis; type: cell-based
MDA-MB-361 = experiment: Antiproliferative activity against human MDA-MB-361 cells assessed as inhibition of cell growth measured after 10 days by cell titre glo luminescence assay; type: functional, cell-based; conditions: time 10.0 day
Estrogen receptor beta = Estrogen receptor beta (Homo sapiens, UniProt Q92731); experiment: Antagonist activity at ERbeta expressed in HEK293/Gal4 cells incubated for 24 hrs in presence of di-arylpropionitrile by luciferase reporter gene assay
Estrogen receptor beta, sequence (Q92731 whole entry, the tested form may be a part): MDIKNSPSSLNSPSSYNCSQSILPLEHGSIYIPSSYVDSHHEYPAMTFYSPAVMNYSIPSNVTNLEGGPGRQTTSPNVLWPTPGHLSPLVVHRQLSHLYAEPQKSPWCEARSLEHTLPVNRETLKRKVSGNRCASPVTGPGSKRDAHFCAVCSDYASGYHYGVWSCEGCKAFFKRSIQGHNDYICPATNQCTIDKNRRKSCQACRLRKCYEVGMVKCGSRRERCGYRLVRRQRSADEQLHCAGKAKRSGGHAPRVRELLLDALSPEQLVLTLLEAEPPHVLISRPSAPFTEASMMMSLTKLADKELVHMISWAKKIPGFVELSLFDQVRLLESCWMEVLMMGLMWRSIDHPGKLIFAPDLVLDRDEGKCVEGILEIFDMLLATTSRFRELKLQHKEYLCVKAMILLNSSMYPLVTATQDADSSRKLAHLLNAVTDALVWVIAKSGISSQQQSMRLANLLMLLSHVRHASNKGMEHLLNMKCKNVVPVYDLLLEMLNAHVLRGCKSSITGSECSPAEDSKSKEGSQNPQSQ

[22] = Elimination half life in ICR mouse at 2 mg/kg, iv measured up to 24 hrs by LC/MS/MS analysis; type: ADME, organism-based; conditions: in vivo, read-out: beta t1/2 (converted)
[23] = Ratio of drug concentration in rat breast to plasma at 20 mg/kg, po measured after 2 hrs
MCF7 [24] = experiment: Antitumor activity against tamoxifen-sensitive human MCF7 cells xenografted in athymic mouse assessed as reduction in tumor growth at 15 mg/kg, po qd measured after 21 days; conditions: 504 h, read-out: TGI
[25] = Drug concentration in rat blood at 20 mg/kg, po measured after 2 hrs; type: ADME, organism-based; conditions: whole blood, read-out: Ct
[26] = MRT in ICR mouse at 5 mg/kg, po measured up to 24 hrs by LC/MS/MS analysis; type: ADME, organism-based; conditions: in vivo
MCF7 [27] = experiment: Antiproliferative activity against human MCF7 cells assessed as inhibition of cell growth measured after 6 days by cell titre glo luminescence assay; conditions: MCF7, 144 h
Estrogen receptor = Estrogen receptor (Homo sapiens, UniProt P03372, D538G); experiment: Antagonist activity at ERalpha D538G mutant degradation in human SK-BR-3 cells incubated for 24 hrs in presence of beta-estradiol by luciferase gene assay; type: cell-based
Estrogen receptor, sequence (P03372 whole entry D538G): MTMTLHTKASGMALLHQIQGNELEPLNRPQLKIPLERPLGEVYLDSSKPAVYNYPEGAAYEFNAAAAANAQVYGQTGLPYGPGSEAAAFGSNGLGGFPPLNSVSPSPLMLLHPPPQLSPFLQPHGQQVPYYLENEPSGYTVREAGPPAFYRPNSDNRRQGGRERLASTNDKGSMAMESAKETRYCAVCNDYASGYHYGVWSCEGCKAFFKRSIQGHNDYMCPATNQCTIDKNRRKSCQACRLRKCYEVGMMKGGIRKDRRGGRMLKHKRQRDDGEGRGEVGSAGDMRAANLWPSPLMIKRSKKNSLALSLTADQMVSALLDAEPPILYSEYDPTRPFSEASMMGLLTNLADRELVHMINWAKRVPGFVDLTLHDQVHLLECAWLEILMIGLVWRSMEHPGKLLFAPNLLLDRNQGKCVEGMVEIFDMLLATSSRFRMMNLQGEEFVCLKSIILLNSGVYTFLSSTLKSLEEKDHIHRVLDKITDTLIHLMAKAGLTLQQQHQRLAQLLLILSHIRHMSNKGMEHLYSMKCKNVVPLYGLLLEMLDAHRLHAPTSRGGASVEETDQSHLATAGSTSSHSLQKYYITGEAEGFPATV

[28] = system: Estrogen receptor (Homo sapiens), P03372 [Y537S]; experiment: Induction of ERalpha Y537S mutant degradation in human MCF7 cells at 10 to 100 nM incubated for 4 hrs by Western blot analysis; type: cell-based; conditions: dose 10-100 nM
Estrogen receptor (Homo sapiens), P03372 [Y537S], sequence (P03372 whole entry Y537S): as the sequence (P03372 whole entry D538G) above, with Y537S, G538D counted along it

BT-474 = experiment: Antiproliferative activity against human BT-474 cells assessed as inhibition of cell growth measured after 7 days by cell titre glo luminescence assay; type: functional, cell-based; conditions: time 7.0 day
[29] = Toxicity in athymic mouse xenografted with tamoxifen-sensitive human MCF7 cells assessed as body weight loss at 5 to 15 mg/kg, po qd incubated for 21 days; type: organism-based; conditions: in vivo, 504 h, dose 5-15 mg/kg, time 21 day
[30] = Ratio of drug concentration in rat blood to plasma at 20 mg/kg, po measured after 2 hrs; conditions: blood and plasma

## CC(F)(F)c1cc(Cl)ccc1-c1sc2c(ccc3[nH]ncc32)c1Oc1ccc(OC2CN(CCCF)C2)cc1
[1]
  AUC(0-t) at 24 h: 7710 ng·h/mL
[2]
  Kp at 2 h: 3.6
[3]
  Vd: 2.7 L/kg
[4]
  Kp at 2 h: 34.9
[5]
  concentration at 2 h: 4420 ng/mL
[6]
  concentration at 2 h: 2170 ng/mL
[7]
  Activity: Dde
[8]
  Cmax: 340 ng/mL
[9]
  AUC(0-t) at 24 h: 4630 ng·h/mL
T47D
  Activity: Active
[10]
  concentration at 2 h: 442 ng/mL
[11]
  concentration at 2 h: 7100 ng/mL
[12]
  bioavailability: 67%
[13]
  Activity: Dde
[14]
  Cmax: 768 ng/mL
[15]
  concentration at 2 h: 212000 ng/mL
[16]
  MRT: 6.4 h
[17]
  AUC(0-t) at 24 h: 3180 ng·h/mL
[18]
  Tmax: 3.3 h
[19]
  concentration at 2 h: 2410 ng/mL
CAMA-1
  Activity: Active
[20]
  MRT: 7 h
[21]
  Activity: Active
MDA-MB-361
  Activity: Active
Estrogen receptor beta
  pIC50: 8.64
[22]
  half-life: 4.6 h
[23]
  Kp at 2 h: 4
MCF7 [24]
  inhibition in vivo at 15 mg/kg: -17%
[25]
  concentration at 2 h: 480 ng/mL
[26]
  MRT: 8.2 h
MCF7 [27]
  pIC50: 9.00
Estrogen receptor
  pIC50: 7.79
[28]
  Activity: Active
BT-474
  Activity: Active
[29]
  Activity: Non-Toxic
[30]
  blood plasma ratio at 2 h: 0.8
